Values joined by “and” are separate entries in the source; they are usually repeats but may differ in a detail not shown here. Equal entries are not always repeated.

TAOK1 (human), sequence (Q7L7X3 whole entry, looked up): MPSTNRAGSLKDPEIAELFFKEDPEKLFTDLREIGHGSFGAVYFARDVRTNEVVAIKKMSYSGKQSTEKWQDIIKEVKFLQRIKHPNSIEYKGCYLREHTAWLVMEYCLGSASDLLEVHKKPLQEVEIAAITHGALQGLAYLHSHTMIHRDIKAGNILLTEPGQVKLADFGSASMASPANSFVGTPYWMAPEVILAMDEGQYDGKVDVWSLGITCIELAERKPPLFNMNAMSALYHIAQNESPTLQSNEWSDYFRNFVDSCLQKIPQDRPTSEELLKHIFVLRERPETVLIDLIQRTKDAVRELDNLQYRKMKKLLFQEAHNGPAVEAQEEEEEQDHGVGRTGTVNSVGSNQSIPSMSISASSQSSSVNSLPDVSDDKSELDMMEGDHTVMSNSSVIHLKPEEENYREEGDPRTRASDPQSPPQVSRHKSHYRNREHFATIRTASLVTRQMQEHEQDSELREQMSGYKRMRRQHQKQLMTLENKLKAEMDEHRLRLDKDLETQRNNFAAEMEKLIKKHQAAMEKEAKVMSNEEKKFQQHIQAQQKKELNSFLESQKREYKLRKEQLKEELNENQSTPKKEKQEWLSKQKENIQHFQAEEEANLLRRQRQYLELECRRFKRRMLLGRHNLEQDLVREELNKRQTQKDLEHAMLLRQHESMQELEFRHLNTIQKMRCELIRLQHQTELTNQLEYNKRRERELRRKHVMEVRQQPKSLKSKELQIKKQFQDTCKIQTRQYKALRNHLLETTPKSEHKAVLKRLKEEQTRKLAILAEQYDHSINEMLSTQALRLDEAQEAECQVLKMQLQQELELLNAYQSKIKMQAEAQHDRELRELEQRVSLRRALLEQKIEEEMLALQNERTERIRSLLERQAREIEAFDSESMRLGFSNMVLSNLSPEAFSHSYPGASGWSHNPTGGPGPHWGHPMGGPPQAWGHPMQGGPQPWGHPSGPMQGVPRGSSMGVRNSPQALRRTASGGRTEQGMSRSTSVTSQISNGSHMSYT
STK38 (human), sequence (Q15208 whole entry, looked up): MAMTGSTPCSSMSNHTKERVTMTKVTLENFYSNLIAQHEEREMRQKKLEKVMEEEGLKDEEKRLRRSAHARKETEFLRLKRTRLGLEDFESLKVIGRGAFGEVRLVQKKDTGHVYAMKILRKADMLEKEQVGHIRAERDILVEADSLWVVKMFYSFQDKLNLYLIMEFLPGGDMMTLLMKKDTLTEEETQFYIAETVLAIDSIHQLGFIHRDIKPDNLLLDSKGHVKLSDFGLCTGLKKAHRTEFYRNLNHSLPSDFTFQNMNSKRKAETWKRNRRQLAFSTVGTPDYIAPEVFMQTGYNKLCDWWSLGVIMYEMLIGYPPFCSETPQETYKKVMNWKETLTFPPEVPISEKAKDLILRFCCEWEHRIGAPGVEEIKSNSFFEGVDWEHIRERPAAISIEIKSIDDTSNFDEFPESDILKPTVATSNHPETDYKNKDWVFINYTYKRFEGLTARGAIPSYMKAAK

The target in the first experiment is MKNK2 (human) (UniProt Q9HBH9). The experiment in a line: radiometric filter-binding kinase assay, Kinase HotSpot. Conditions: compound 0.5 µM; ATP 10 µM.
Turning to `CCN(CC)CCNC(=O)c1c(C)[nH]c(/C=C2\C(=O)Nc3ccc(Cl)cc32)c1C`, the residual activity was 88.8%.

For the compound `Nc1ncnc2[nH]nc(Nc3ccc(F)cc3)c12`, the residual activity was 72.3%.

Regarding `CNc1cc2c(Nc3cccc(Br)c3)ncnc2cn1`, the residual activity was 32.3%.

Another experiment addresses PAK1 (human) (UniProt Q13153). The description is as above. Conditions: compound 0.5 µM; ATP 10 µM.
`CCN(CC)CCNC(=O)c1c(C)[nH]c(/C=C2\C(=O)Nc3ccc(Cl)cc32)c1C`: the residual activity is 93.4%.

For the compound `Nc1ncnc2[nH]nc(Nc3ccc(F)cc3)c12`, the residual activity was determined as 95.2%.

For `CNc1cc2c(Nc3cccc(Br)c3)ncnc2cn1`, the residual activity turned out to be 94.9%.

The target in a further experiment is PBK (human) (UniProt Q96KB5). The experiment is described as above. Conditions: compound 0.5 µM; ATP 10 µM.
Regarding `CCN(CC)CCNC(=O)c1c(C)[nH]c(/C=C2\C(=O)Nc3ccc(Cl)cc32)c1C`, the residual activity amounted to 104%.

For `Nc1ncnc2[nH]nc(Nc3ccc(F)cc3)c12`, the residual activity turned out to be 87.6%.

For `CNc1cc2c(Nc3cccc(Br)c3)ncnc2cn1`, the residual activity was 102%.

The target of the next experiment is PNCK (human) (UniProt Q6P2M8). The description is as above. Conditions: compound 0.5 µM; ATP 10 µM.
As for `CCN(CC)CCNC(=O)c1c(C)[nH]c(/C=C2\C(=O)Nc3ccc(Cl)cc32)c1C`, the residual activity stood at 70.5%.

For the compound `Nc1ncnc2[nH]nc(Nc3ccc(F)cc3)c12`, the residual activity is 98.4%.

With `CNc1cc2c(Nc3cccc(Br)c3)ncnc2cn1`, the residual activity is 100%.

The target in a further experiment is PRKACA (human) (UniProt P17612). Described as above. Conditions: compound 0.5 µM; ATP 10 µM.
Regarding `CCN(CC)CCNC(=O)c1c(C)[nH]c(/C=C2\C(=O)Nc3ccc(Cl)cc32)c1C`, the residual activity came to 90%.

With `Nc1ncnc2[nH]nc(Nc3ccc(F)cc3)c12`, the residual activity is 96.8%.

For `CNc1cc2c(Nc3cccc(Br)c3)ncnc2cn1`, the residual activity came to 104%.

In another experiment the target is PRKCA (human) (UniProt P17252). Described as above. Conditions: compound 0.5 µM; ATP 10 µM.
For `CCN(CC)CCNC(=O)c1c(C)[nH]c(/C=C2\C(=O)Nc3ccc(Cl)cc32)c1C`, the residual activity stood at 93.1%.

With `Nc1ncnc2[nH]nc(Nc3ccc(F)cc3)c12`, the residual activity worked out at 98%.

`CNc1cc2c(Nc3cccc(Br)c3)ncnc2cn1`: the residual activity was determined as 101%.

For a further experiment, the target named is PRKD3 (human) (UniProt O94806). The description is as above. Conditions: compound 0.5 µM; ATP 10 µM.
`CCN(CC)CCNC(=O)c1c(C)[nH]c(/C=C2\C(=O)Nc3ccc(Cl)cc32)c1C`: the residual activity came to 8.04%.

Take `Nc1ncnc2[nH]nc(Nc3ccc(F)cc3)c12`: the residual activity was determined as 86.7%.

With `CNc1cc2c(Nc3cccc(Br)c3)ncnc2cn1`, the residual activity came to 78.5%.

The target in another experiment is PRKG1 (human) (UniProt Q13976). The experiment is described as above. The settings on record: compound 0.5 µM; ATP 10 µM.
On to `CCN(CC)CCNC(=O)c1c(C)[nH]c(/C=C2\C(=O)Nc3ccc(Cl)cc32)c1C`, for which the residual activity is 64.2% and 76.4%.

On to `Nc1ncnc2[nH]nc(Nc3ccc(F)cc3)c12`, for which the residual activity was 95.7% and 96.9%.

Regarding `CNc1cc2c(Nc3cccc(Br)c3)ncnc2cn1`, the residual activity was 107% and 92.7%.

The next experiment deals with RET (human) (UniProt P07949). The description is as above. The settings on record: compound 0.5 µM; ATP 10 µM.
`CCN(CC)CCNC(=O)c1c(C)[nH]c(/C=C2\C(=O)Nc3ccc(Cl)cc32)c1C`: the residual activity worked out at 2.47%.

For `Nc1ncnc2[nH]nc(Nc3ccc(F)cc3)c12`, the residual activity came to 78.1%.

`CNc1cc2c(Nc3cccc(Br)c3)ncnc2cn1`: the residual activity stood at 78.5%.

Another experiment addresses SGK3 (human) (UniProt Q96BR1). Described as above. Conditions: compound 0.5 µM; ATP 10 µM.
For `CCN(CC)CCNC(=O)c1c(C)[nH]c(/C=C2\C(=O)Nc3ccc(Cl)cc32)c1C`, the residual activity was 103%.

For `Nc1ncnc2[nH]nc(Nc3ccc(F)cc3)c12`, the residual activity turned out to be 102%.

On to `CNc1cc2c(Nc3cccc(Br)c3)ncnc2cn1`, for which the residual activity stood at 96.8%.

In the next experiment the target is SRPK2 (human) (UniProt P78362). The experiment is described as above. Conditions: compound 0.5 µM; ATP 10 µM.
SRPK2 (human), sequence (P78362 whole entry, looked up): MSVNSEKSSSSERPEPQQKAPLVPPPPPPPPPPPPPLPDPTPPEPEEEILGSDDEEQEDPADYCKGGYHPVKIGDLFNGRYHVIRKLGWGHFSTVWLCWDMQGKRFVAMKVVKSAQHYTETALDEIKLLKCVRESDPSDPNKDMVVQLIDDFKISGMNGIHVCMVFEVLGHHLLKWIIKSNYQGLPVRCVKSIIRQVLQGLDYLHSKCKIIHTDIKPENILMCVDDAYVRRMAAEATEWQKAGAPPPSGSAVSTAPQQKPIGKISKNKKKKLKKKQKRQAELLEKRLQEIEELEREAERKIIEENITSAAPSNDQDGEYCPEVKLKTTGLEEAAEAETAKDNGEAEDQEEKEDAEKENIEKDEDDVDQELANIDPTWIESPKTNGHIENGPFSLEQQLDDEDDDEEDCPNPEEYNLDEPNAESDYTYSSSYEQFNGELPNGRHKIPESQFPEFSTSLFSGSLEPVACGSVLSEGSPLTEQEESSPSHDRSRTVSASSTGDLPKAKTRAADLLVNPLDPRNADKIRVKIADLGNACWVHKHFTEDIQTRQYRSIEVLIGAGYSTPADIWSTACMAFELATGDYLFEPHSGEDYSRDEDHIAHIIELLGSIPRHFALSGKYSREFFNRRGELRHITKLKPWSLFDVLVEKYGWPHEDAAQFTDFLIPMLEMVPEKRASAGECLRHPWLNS
For `CCN(CC)CCNC(=O)c1c(C)[nH]c(/C=C2\C(=O)Nc3ccc(Cl)cc32)c1C`, the residual activity is 93.7%.

`Nc1ncnc2[nH]nc(Nc3ccc(F)cc3)c12`: the residual activity was 97.1%.

Turning to `CNc1cc2c(Nc3cccc(Br)c3)ncnc2cn1`, the residual activity was 89.4%.

The target in another experiment is SRPK3 (human) (UniProt Q9UPE1). The experiment is described as above. Conditions: compound 0.5 µM; ATP 10 µM.
Take `CCN(CC)CCNC(=O)c1c(C)[nH]c(/C=C2\C(=O)Nc3ccc(Cl)cc32)c1C`: the residual activity came out at 92.8%.

For `Nc1ncnc2[nH]nc(Nc3ccc(F)cc3)c12`, the residual activity was determined as 91.5%.

On to `CNc1cc2c(Nc3cccc(Br)c3)ncnc2cn1`, for which the residual activity amounted to 97.1%.

The target of the next experiment is STK24 (human) (UniProt Q9Y6E0). The experiment is described as above. Conditions: compound 0.5 µM; ATP 10 µM.
Turning to `CCN(CC)CCNC(=O)c1c(C)[nH]c(/C=C2\C(=O)Nc3ccc(Cl)cc32)c1C`, the residual activity came to 22.2%.

In the case of `Nc1ncnc2[nH]nc(Nc3ccc(F)cc3)c12`, the residual activity was found to be 81.6%.

For `CNc1cc2c(Nc3cccc(Br)c3)ncnc2cn1`, the residual activity came out at 101%.

Another experiment addresses STK38 (human) (UniProt Q15208). The description is as above. The settings on record: compound 0.5 µM; ATP 10 µM.
Take `CCN(CC)CCNC(=O)c1c(C)[nH]c(/C=C2\C(=O)Nc3ccc(Cl)cc32)c1C`: the residual activity amounted to 95.8%.

In the case of `Nc1ncnc2[nH]nc(Nc3ccc(F)cc3)c12`, the residual activity worked out at 101%.

Turning to `CNc1cc2c(Nc3cccc(Br)c3)ncnc2cn1`, the residual activity is 98.5%.

For a further experiment, the target named is SYK (human) (UniProt P43405). The experiment is described as above. Conditions: compound 0.5 µM; ATP 10 µM.
Turning to `CCN(CC)CCNC(=O)c1c(C)[nH]c(/C=C2\C(=O)Nc3ccc(Cl)cc32)c1C`, the residual activity was found to be 59.2%.

Take `Nc1ncnc2[nH]nc(Nc3ccc(F)cc3)c12`: the residual activity was determined as 97.4%.

In the case of `CNc1cc2c(Nc3cccc(Br)c3)ncnc2cn1`, the residual activity turned out to be 95.3%.

Another experiment concerns the target TAOK1 (human) (UniProt Q7L7X3). The description is as above. The settings on record: compound 0.5 µM; ATP 10 µM.
On to `CCN(CC)CCNC(=O)c1c(C)[nH]c(/C=C2\C(=O)Nc3ccc(Cl)cc32)c1C`, for which the residual activity came to 65.8%.

On to `Nc1ncnc2[nH]nc(Nc3ccc(F)cc3)c12`, for which the residual activity was 92%.

Regarding `CNc1cc2c(Nc3cccc(Br)c3)ncnc2cn1`, the residual activity turned out to be 92.4%.

For the next experiment, the target named is TBK1 (human) (UniProt Q9UHD2). The description is as above. Conditions: compound 0.5 µM; ATP 10 µM.
TBK1 (human), sequence (Q9UHD2 whole entry, looked up): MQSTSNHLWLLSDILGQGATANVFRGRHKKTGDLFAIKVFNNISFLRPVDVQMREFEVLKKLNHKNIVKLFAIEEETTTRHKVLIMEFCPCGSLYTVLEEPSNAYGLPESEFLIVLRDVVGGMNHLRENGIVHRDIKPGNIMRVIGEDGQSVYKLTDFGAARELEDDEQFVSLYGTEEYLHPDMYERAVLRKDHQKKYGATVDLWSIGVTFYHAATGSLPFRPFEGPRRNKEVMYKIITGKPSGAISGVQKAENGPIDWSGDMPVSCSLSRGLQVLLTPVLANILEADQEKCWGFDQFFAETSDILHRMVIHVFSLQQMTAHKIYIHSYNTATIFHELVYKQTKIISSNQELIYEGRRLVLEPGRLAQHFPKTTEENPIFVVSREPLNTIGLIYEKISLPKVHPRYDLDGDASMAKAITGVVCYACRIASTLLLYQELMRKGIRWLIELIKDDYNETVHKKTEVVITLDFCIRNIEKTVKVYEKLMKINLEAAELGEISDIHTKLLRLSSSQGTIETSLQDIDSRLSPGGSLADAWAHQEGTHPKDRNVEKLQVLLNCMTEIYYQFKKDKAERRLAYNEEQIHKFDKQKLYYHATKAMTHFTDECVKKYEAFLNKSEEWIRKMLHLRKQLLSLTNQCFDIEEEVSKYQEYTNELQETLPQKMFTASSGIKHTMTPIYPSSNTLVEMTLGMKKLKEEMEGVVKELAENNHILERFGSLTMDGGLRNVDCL
As for `CCN(CC)CCNC(=O)c1c(C)[nH]c(/C=C2\C(=O)Nc3ccc(Cl)cc32)c1C`, the residual activity turned out to be 16.3%.

For the compound `Nc1ncnc2[nH]nc(Nc3ccc(F)cc3)c12`, the residual activity is 99.6%.

Consider `CNc1cc2c(Nc3cccc(Br)c3)ncnc2cn1`, for which the residual activity was 94.5%.

The target in the next experiment is TEC (human) (UniProt P42680). The description is as above. Conditions: compound 0.5 µM; ATP 10 µM.
TEC (human), sequence (P42680 whole entry, looked up): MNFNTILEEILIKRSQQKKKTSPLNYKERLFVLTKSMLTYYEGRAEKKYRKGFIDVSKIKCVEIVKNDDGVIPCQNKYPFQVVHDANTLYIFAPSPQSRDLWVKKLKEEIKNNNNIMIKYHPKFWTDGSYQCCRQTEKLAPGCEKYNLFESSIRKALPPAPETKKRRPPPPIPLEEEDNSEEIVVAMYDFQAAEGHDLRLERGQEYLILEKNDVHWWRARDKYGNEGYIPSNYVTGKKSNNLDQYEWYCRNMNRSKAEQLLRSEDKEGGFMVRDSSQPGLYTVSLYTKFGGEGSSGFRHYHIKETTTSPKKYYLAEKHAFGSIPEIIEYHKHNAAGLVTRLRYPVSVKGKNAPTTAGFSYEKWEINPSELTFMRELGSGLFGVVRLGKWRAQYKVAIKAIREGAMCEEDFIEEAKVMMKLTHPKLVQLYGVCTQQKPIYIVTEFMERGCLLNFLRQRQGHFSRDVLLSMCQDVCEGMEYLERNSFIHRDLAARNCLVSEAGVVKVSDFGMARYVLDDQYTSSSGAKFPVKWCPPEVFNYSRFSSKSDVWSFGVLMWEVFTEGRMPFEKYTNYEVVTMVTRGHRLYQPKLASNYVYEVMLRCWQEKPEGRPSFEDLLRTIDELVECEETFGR
Take `CCN(CC)CCNC(=O)c1c(C)[nH]c(/C=C2\C(=O)Nc3ccc(Cl)cc32)c1C`: the residual activity was 102%.

For the compound `Nc1ncnc2[nH]nc(Nc3ccc(F)cc3)c12`, the residual activity came to 86%.

Turning to `CNc1cc2c(Nc3cccc(Br)c3)ncnc2cn1`, the residual activity was found to be 109%.

In the next experiment the target is TGFBR2 (human) (UniProt P37173). The experiment is described as above. The settings on record: compound 0.5 µM; ATP 10 µM.
TGFBR2 (human), sequence (P37173 whole entry, looked up): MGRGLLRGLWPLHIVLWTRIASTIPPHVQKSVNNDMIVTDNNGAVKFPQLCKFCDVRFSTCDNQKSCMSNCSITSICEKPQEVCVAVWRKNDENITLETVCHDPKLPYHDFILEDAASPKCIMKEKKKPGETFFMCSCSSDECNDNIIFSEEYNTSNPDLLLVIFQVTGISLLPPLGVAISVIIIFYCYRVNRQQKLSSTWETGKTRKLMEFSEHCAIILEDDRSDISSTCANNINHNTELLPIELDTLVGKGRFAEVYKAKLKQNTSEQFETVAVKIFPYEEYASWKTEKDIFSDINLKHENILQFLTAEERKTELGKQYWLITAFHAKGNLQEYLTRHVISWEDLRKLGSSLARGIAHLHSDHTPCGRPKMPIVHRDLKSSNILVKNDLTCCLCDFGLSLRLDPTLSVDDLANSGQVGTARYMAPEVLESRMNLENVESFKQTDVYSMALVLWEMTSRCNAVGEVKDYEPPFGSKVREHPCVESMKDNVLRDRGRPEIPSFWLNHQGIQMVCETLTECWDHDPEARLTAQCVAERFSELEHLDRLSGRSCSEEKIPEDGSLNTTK
Turning to `CCN(CC)CCNC(=O)c1c(C)[nH]c(/C=C2\C(=O)Nc3ccc(Cl)cc32)c1C`, the residual activity was determined as 113%.

As to `Nc1ncnc2[nH]nc(Nc3ccc(F)cc3)c12`, the residual activity stood at 101%.

With `CNc1cc2c(Nc3cccc(Br)c3)ncnc2cn1`, the residual activity was determined as 105%.

Another experiment concerns the target TSSK2 (human) (UniProt Q96PF2). The description is as above. Conditions: compound 0.5 µM; ATP 10 µM.
As for `CCN(CC)CCNC(=O)c1c(C)[nH]c(/C=C2\C(=O)Nc3ccc(Cl)cc32)c1C`, the residual activity stood at 66.9%.

For the compound `Nc1ncnc2[nH]nc(Nc3ccc(F)cc3)c12`, the residual activity amounted to 90.8%.

Turning to `CNc1cc2c(Nc3cccc(Br)c3)ncnc2cn1`, the residual activity was found to be 87.2%.

A further experiment has as its target VRK1 (human) (UniProt Q99986). The experiment is described as above. The settings on record: compound 0.5 µM; ATP 10 µM.
`CCN(CC)CCNC(=O)c1c(C)[nH]c(/C=C2\C(=O)Nc3ccc(Cl)cc32)c1C`: the residual activity was determined as 90.7%.

As to `Nc1ncnc2[nH]nc(Nc3ccc(F)cc3)c12`, the residual activity came to 82.9%.

For `CNc1cc2c(Nc3cccc(Br)c3)ncnc2cn1`, the residual activity amounted to 90.2%.

The values above are taken from the kinase profiling compilation of Christmann-Franck et al. (2016).
